Legend:
[1] = tested on: N-terminal APP (sAPPα, sAPPβ, APP31/60); test: In vitro co-immunoprecipitation with recombinant sAPPα/β and APP31/60; type: binding, human; conditions: sAPPα 100 nM, apoE4 100 nM, 6KApoEp or 6K at 5 or 10 μM, 1 h, 37° C.; P<0.05 at 10 μM
N-terminus of APP = test: Co-immunoprecipitation and co-localisation with N-terminal APP in CHO/APPwt cells; type: binding, human; conditions: peptides 10 μM or apoE 10 μg/mL, 2 h; IP with 6H3B5 or pN-APP
Description: Total secreted APP (t-sAPP) and full-length APP (f-APP) in total (inputs), immunoprecipitates and immunodepleted media and lysates were determined by WB using 22C11 or anti-C-terminal APP751/70 antibody (pC-APP), respectively (FIG. 20A left panels and FIG. 20B, top panels). Alternatively, conditioned media and cell lysates were IP with anti-N-terminal APP41/66 antibody (pN-APP) and apoE, or 6KApoEp and ApoEp, was determined using anti-human apoE antibody (ApoE1H4; FIG. 20A, right panels) or 6H3B5, respectively (FIG. 20B, bottom panels). In addition, CHO/APPwt cells were plated at 8 well-chambers at 1×10^5/well for 24 h, treated with 6K, ApoEp or 6KApoEp at 10 μM for 2 h, fixed in 4% paraformaldehyde and stained with 6H3B5 and pN-APP antibodies (FIG. 20C). Alexa Fluor 488 goat anti-mouse IgG (green) was used to detect ApoEp and 6KApoEp, while Alexa Fluor 594 donkey anti-rabbit IgG (red) was used to detect N-terminal APP. DAPI co-staining was done to show nuclear DNA. Homogenates prepared from three TgAPPwt mice (2 female/1 male), two AD patients (AD1[…], AD2[…]) and two normal age-matched control cortices (Ctrl1[…], Ctrl2[…]) were also IP with 6H3B5 or pN-APP and t-APP and apoE were determined using 6E10 and mApoE, respectively (FIGS. 20D-20E).
Total secreted APP in conditioned media and full length APP in cell lysates were then determined by WB using anti-N-terminal (22C11) and anti-C-terminal APP antibodies (pC-APP), respectively. […] In addition, ApoEp and 6KApoEp colocalized with N-terminal APP in cultured CHO/APPwt cells as determined by immunofluorescence staining with 6H3B5 and pN-APP antibodies (FIG. 20C), respectively, confirming that N-terminal APP physically associates with apoE in cell culture. […]
WB analyses were performed as previously described^43,44. […] For all other proteins detected by WB, 10% tris-SDS gels were used. Densitometry analysis was performed as previously described using a FluorS Multiimager with Quantity One™ software 43. […]

N-terminus of APP, sequence (P05067 18-189 limits assumed): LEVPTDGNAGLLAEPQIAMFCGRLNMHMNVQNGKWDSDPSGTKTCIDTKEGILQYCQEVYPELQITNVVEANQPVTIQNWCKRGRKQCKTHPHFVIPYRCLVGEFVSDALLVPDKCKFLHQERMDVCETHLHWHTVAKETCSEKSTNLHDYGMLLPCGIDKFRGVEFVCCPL
N-terminal APP (sAPPα, sAPPβ, APP31/60), sequence (P05067 18-189 limits assumed): as above

6K: 6 lysines control peptide (KKKKKK) [reference compound]
co-immunoprecipitation of sAPPα with apoE4 (apoE4/sAPPα band density ratio) [1]: but not 6K, reduced co-immunoprecipitation of sAPPα with apoE4 | immunoprecipitation and localization with N-terminal APP (N-terminus of APP): but not 6K, immunoprecipitated and localized with N-terminal APP

Source: patent US20190185544A1, “COMPOSITIONS AND METHODS OF MODULATING ABETA PROTEIN” (University of South Florida, priority 2016, published 2019)
